Key:
Assay in all cases: relative viability (nuclei count vs DMSO), 5 days (fraction); higher = more cells survive
[1] = compound: C1/C(=C\C2=CC=CS2)/C(=O)/C(=C/C3=CC=CS3)/C1 + C[C@]1(O)C[C@@H](c2nc(-c3ccc4ccc(-c5ccccc5)nc4c3)c3c(N)nccn32)C1 [Linsitinib] (partner 1 µM)
Method in brief: (§1)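 Relative viability was taken as the ratio of nuclei in treated wells to nuclei in vehicle wells. Lung cancer cell lines in 1536-well plates received compounds by pin tool one day after seeding, either one drug alone or a fixed anchor-drug dose plus five library-drug doses (not always all listed) in √10 steps. Nuclei were counted on 4× images after 5 days of treatment, and values are medians of duplicate plates.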

TPCA-1 + Navitoclax = compound: C1=CC(=CC=C1C2=CC(=C(S2)NC(=O)N)C(=O)N)F [TPCA-1] + CC1(C)CCC(c2ccc(Cl)cc2)=C(CN2CCN(c3ccc(C(=O)NS(=O)(=O)c4ccc(N[C@H](CCN5CCOCC5)CSc5ccccc5)c(S(=O)(=O)C(F)(F)F)c4)cc3)CC2)C1 [Navitoclax] (partner 0.5 µM)
Method in brief: as §1

Lestaurtinib + Foretinib = compound: C[C@]12O[C@H](C[C@]1(O)CO)n1c3ccccc3c3c4c(c5c6ccccc6n2c5c31)CNC4=O [Lestaurtinib] + COc1cc2c(Oc3ccc(NC(=O)C4(C(=O)Nc5ccc(F)cc5)CC4)cc3F)ccnc2cc1OCCCN1CCOCC1 [Foretinib] (partner 0.25 µM)
Method in brief: as §1

Lestaurtinib + Alpelisib = compound: C[C@]12O[C@H](C[C@]1(O)CO)n1c3ccccc3c3c4c(c5c6ccccc6n2c5c31)CNC4=O [Lestaurtinib] + Cc1nc(NC(=O)N2CCC[C@H]2C(N)=O)sc1-c1ccnc(C(C)(C)C(F)(F)F)c1 [Alpelisib] (partner 2 µM)
Method in brief: as §1

Cell Line	relative viability ([1]; first compound 0.2 µM)	relative viability ([1]; first compound 0.6325 µM)	relative viability ([1]; first compound 2 µM)	relative viability ([1]; first compound 6.325 µM)	relative viability ([1]; first compound 20 µM)	relative viability (TPCA-1 + Navitoclax; first compound 0.04 µM)	relative viability (TPCA-1 + Navitoclax; first compound 0.1265 µM)	relative viability (TPCA-1 + Navitoclax; first compound 0.4 µM)	relative viability (TPCA-1 + Navitoclax; first compound 1.265 µM)	relative viability (TPCA-1 + Navitoclax; first compound 4 µM)	relative viability (Lestaurtinib + Foretinib; first compound 0.005 µM)	relative viability (Lestaurtinib + Foretinib; first compound 0.01581 µM)	relative viability (Lestaurtinib + Foretinib; first compound 0.05 µM)	relative viability (Lestaurtinib + Foretinib; first compound 0.1581 µM)	relative viability (Lestaurtinib + Foretinib; first compound 0.5 µM)	relative viability (Lestaurtinib + Alpelisib; first compound 0.005 µM)	relative viability (Lestaurtinib + Alpelisib; first compound 0.01581 µM)	relative viability (Lestaurtinib + Alpelisib; first compound 0.05 µM)	relative viability (Lestaurtinib + Alpelisib; first compound 0.1581 µM)	relative viability (Lestaurtinib + Alpelisib; first compound 0.5 µM)
NCI-H838	1.12	0.979	0.955	0.8	0.94	1.23	0.985	1.13	0.995	0.812	1.12	1.04	0.869	0.519	0.26	1.06	1.05	0.9	0.576	0.183
A549	0.636	0.556	0.628	0.516	0.567	1.29	1.2	1.17	1.29	0.777	1.09	1.07	0.579	0.301	0.169	0.802	0.638	0.518	0.263	0.0616
NCI-H2342	–	–	–	–	–	–	–	–	–	–	1.17	1.06	1.08	1.08	0.922	–	–	–	–	–
NCI-H1623	–	–	–	–	–	–	–	–	–	–	0.872	0.812	0.818	0.671	0.695	–	–	–	–	–
SK-LU-1	1.04	1.08	1.16	0.984	1.24	0.962	0.785	0.789	0.7	0.566	0.763	0.707	0.4	0.38	0.205	0.652	0.613	0.436	0.536	0.258
NCI-H2085	1.05	0.941	0.805	0.797	1.05	1.14	1.1	1.2	1.12	1.13	1.01	0.885	0.801	1.05	0.826	1.05	1.11	1.06	1.01	0.843
NCI-H460	0.838	0.976	0.694	–	0.728	1.24	1.04	1	1.1	0.709	0.96	1.11	0.951	1.28	0.9	0.477	0.406	0.222	0.198	0.0751
Calu-6	1.05	1.05	0.94	0.921	0.835	0.893	0.795	0.888	0.726	0.394	0.868	0.979	0.499	0.482	0.207	1.05	0.873	0.501	0.381	0.164

— the supplement of paper PMC10307832
